This is an account of results in patent publication US10400064B2, “Glycerol-based polycarbonates” (TRUSTEES OF BOSTON UNIVERSITY, priority 2014, dated 2019).

The test system of this assay is A549 cells. The experiment in a line: In vitro toxicity analysis, viability after 3 days of treatment. Particulars: incubated with treatment for 3 days. The class given is cell-based. The procedure:
Scale bar=200 nm. […] Cells were incubated with treatment for 5 days, and viability was assessed. […] Right lower panel: In vitro toxicity analysis of PGC-Cisplatin and cisplatin alone in A549 cells. Cells were incubated with treatment for 3 days, and viability was assessed.
PGC-Pax and PGC-Cisplatin nanoparticles are synthesized using a miniemulsion technique. Briefly, the polymer is added to dichloromethane, and the organic phase is dispersed via sonication into an aqueous phase, containing sodium dodecyl sulfate as a surfactant.

Each structure is given as a SMILES string.

As usually defined, the IC50 is the concentration that gives 50% inhibition. Lower therefore signals greater potency. Turning to `N.N.[Cl][Pt][Cl]` [cisplatin], the 50% inhibitory concentration (IC50) is 0.9273 µg/mL.
